In US10253000B2, “Pyridazin-3(2H)-one derivatives as monoamine oxidase selective isoform B inhibitors” (UNIVERSIDADE DE VIGO, priority 2014, dated 2019):
Like-named read-outs stand apart in the source and are kept apart here. Marks after values point to notes of the source that are not given here.

Tests used:
human recombinant MAO-A = target: T1, human recombinant MAO-A (Homo sapiens, UniProt P21397); assay: Determination of MAO isoforms activity (Amplex Red, p-tyramine), MAO-A; type: biochemical; settings: read-out: IC50 hMAO-A
T1 construct: purchased Sigma-Aldrich Química S.A., Alcobendas, Spain; host or cells: insect cells (BTI-TN-5B1-4) infected with recombinant baculovirus
T1 sequence (P21397 1-527): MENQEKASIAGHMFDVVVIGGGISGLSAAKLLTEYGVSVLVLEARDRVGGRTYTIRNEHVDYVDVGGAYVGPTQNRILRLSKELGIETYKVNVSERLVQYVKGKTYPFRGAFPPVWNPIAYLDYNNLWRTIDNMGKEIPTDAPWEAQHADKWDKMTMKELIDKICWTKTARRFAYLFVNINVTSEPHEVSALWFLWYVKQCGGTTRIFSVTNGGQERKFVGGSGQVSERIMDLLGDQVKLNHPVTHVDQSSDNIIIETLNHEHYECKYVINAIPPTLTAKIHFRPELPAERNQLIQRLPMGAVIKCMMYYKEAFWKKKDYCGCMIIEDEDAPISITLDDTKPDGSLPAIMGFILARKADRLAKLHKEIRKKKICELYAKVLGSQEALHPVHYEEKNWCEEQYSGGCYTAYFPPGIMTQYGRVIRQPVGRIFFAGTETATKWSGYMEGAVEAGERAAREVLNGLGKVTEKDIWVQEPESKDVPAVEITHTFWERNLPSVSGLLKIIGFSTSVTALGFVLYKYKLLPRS

human recombinant MAO-B = target: T2, human recombinant MAO-B (Homo sapiens, UniProt P27338); assay: Determination of MAO isoforms activity (Amplex Red, p-tyramine), MAO-B; type: biochemical; settings: for S.I. Selectivity index hMAO-B = IC50 (hMAO-A)/IC50 (hMAO-B): bounds calculated taking the highest concentration studied (100 μM or 1 mM) as IC50; for IC50: read-out: IC50 hMAO-B
T2 construct: purchased Sigma-Aldrich Química S.A., Alcobendas, Spain; host or cells: insect cells (BTI-TN-5B1-4) infected with recombinant baculovirus
T2 sequence (P27338 1-520): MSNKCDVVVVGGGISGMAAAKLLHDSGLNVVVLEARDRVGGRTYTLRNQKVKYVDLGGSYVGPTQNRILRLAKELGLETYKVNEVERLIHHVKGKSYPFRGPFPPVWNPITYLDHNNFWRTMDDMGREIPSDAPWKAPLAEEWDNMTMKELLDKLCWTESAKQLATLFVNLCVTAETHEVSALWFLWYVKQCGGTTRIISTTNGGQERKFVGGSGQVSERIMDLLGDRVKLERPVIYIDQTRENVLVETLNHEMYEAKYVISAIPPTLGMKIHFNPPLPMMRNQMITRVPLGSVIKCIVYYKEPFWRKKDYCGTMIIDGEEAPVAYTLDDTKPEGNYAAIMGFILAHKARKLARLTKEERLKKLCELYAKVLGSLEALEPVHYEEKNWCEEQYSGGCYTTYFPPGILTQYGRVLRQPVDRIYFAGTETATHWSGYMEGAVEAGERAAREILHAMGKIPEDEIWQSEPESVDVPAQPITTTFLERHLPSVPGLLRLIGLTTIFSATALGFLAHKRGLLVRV

[1] = human recombinant MAO-B, p-tyramine 1 mM, mean ± spread of 5 experiments

IC50 (human recombinant MAO-A) [µM] | S.I. Selectivity index hMAO-B = IC50 (hMAO-A)/IC50 (hMAO-B) (human recombinant MAO-B) | IC50 (human recombinant MAO-B; [1]) [µM] | IC50 (human recombinant MAO-B) [µM] | Compound
> 100 | >15^b | 6.71 ± 0.45 |  | O=c1cc(CSC(=S)N2CCCCC2)cnn1Cc1ccccc1 [IIc4, 1-benzyl-6-oxo-1,6-dihydropyridazin-4-ylmethyl Piperidin-1-ylcarbodithioate]
> 100 | >4.2^b | 24.1 ± 1.6 |  | O=c1c(CSC(=S)N2CCOCC2)ccnn1Cc1ccccc1 [IIIc5, 1-benzyl-6-oxo-1,6-dihydropyridazin-5-ylmethyl Morpholin-4-ylcarbodithioate]
> 100 | >2.9^b | 34 ± 2.26 |  | O=c1c(CSC(=S)N2CCCC2)ccnn1Cc1ccccc1 [IIIc3, 1-benzyl-6-oxo-1,6-dihydropyridazin-5-ylmethyl Pyrrolidin-1-ylcarbodithioate]
> 100 |  |  | > 100 | O=C(c1ccccc1)N1CCN(C(=S)SCc2ccnn(Cc3ccccc3)c2=O)CC1 [IIIc11, 1-benzyl-6-oxo-1,6-dihydropyridazin-5-ylmethyl 4-benzoylpiperazin-1-ylcarbodithioate]
> 100 |  |  |  | O=c1cc(CSC(=S)N2CCOCC2)cnn1Cc1ccccc1 [IIc5, 1-benzyl-6-oxo-1,6-dihydropyridazin-4-ylmethyl Morpholin-4-ylcarbodithioate]
> 100 |  |  | > 100 | O=C(c1ccccc1)N1CCN(C(=S)SCc2cnn(Cc3ccccc3)c(=O)c2)CC1 [IIc11, 1-benzyl-6-oxo-1,6-dihydropyridazin-4-ylmethyl 4-benzoylpiperazin-1-ylcarbodithioate]
 | 10.3 | 9.68 ± 0.65 |  | O=c1cc(CSC(=S)N2CCCC2)cnn1Cc1ccccc1 [IIc3, 1-benzyl-6-oxo-1,6-dihydropyridazin-4-ylmethyl Pyrrolidin-1-ylcarbodithioate]

Second part, the compound before the results:

Compound | IC50 (human recombinant MAO-A) [µM] | S.I. Selectivity index hMAO-B = IC50 (hMAO-A)/IC50 (hMAO-B) (human recombinant MAO-B) | IC50 (human recombinant MAO-B; [1]) [µM] | IC50 (human recombinant MAO-B) [µM]
Cn1nc(CCCSC(=S)N2CCCC2)ccc1=O [Ia25, 3-(1-methyl-6-oxo-1,6-dihydropyridazin-3-yl)propyl Pyrrolidin-1-ylcarbodithioate] | > 100 | >1.5^b | 66.5 ± 4.43 | 
Cc1cc(=O)n(C)nc1CSC(=S)N1CCN(C(=O)c2ccccc2)CC1 [Id11, 1,4-dimethyl-6-oxo-1,6-dihydropyridazin-3-ylmethyl 4-benzoylpiperazin-1-ylcarbodithioate] |  | 2.2 | 44.5 ± 2 | 
Cc1cc(=O)n(C)nc1CSC(=S)N1CCOCC1 [Id5, 1,4-dimethyl-6-oxo-1,6-dihydropyridazin-3-ylmethyl morpholin-4-ylcarbodithioate] |  | 2.6 | 38.6 ± 1.74 | 
Cc1cc(=O)n(C)nc1CSC(=S)N1CCCC1 [Id3, 1,4-dimethyl-6-oxo-1,6-dihydropyridazin-3-ylmethyl Pyrrolidin-1-ylcarbodithioate] | > 100 |  |  | > 1000
Cc1cc(=O)n(C)nc1CSC(=S)N1CCCCC1 [Id4, 1,4-dimethyl-6-oxo-1,6-dihydropyridazin-3-ylmethyl Piperidin-1-ylcarbodithioate] |  | 13.4 | 7.48 ± 0.34 | 
CCN(CC)C(=S)SCc1cnn(Cc2ccccc2)c(=O)c1 [IIc2, 1-benzyl-6-oxo-1,6-dihydropyridazin-4-ylmethyl N,N-diethyldithiocarbamate] | > 100 | >2.3^b | 44.2 ± 2.95 | 
Cn1nc(CCSC(=S)N2CCCCC2)ccc1=O [Ia15, 2-(1-methyl-6-oxo-1,6-dihydropyridazin-3-yl)ethyl Piperidin-1-ylcarbodithioate] | > 100 | >8.4^b | 11.9 ± 0.53 | 
